These results are taken from US20230355613A1, “METHODS FOR TREATING PANCREATIC DUCTAL ADENOCARCINOMA” (HEALTH RESEARCH, INC., priority 2022, published 2023).

One test has as its system PDAC cell lines. In words: Clonogenic growth (colony formation) assay. The format is cell-based, human. The settings on record: all PDAC cell lines tested, 11-14 days. The source says: PDAC cells are sensitive to chemical inhibition of CPSF3. CPSF3 was recently identified as the target for the small molecule JTE-607. JTE-607 is a prodrug that, when metabolized by the ester hydrolyzing enzyme carboxylesterase 1 (CES1), binds to CPSF3 and inhibits its catalytic activity, impairing the processing of newly synthesized mRNAs. As genetic depletion of CPSF3 attenuated PDAC cell proliferation (FIG. 1), it 2as hypothesized that pharmacologic inhibition of CPSF3 with JTE-607 could represent a novel therapeutic approach in PDAC. The sensitivity of multiple human pancreatic cell lines, both non-transformed and PDAC, to JTE-607 in a 72-hour dose-response cell viability assay was examined. […] To examine if sensitivity to CPSF3 inhibition was associated with proliferation rate, the relationship between cell line doubling time and JTE-607 sensitivity was assessed. […] Next, the effect of JTE-607 on cell proliferation by treating cells with increasing concentrations of JTE-607 and assessing cell viability in a time-dependent fashion (FIGS. 2C-2E) was determined. […]
JTE-607 studies. […] The next day, JTE-607 was titrated over a range of concentrations using the Tecan D300e Digital Dispenser and cell viability was measured 72 hours post drug titration using a CellTiter-Glo Luminescent Cell Viability Assay Kit (Promega). […] Colony area was measured using ImageJ software. […]

The subject of test [1] is Panc1 cells. In words: Western blot of histone protein levels. In kind it is cell-based, human. Conditions: dose- and time-dependent. Background: Immunoblotting shows a protein as a band on a membrane.
The subject of test [2] is MiaPaCa2 cells. The experiment in a line: mRNA expression of RD histones (H2B, H3) by qPCR. In kind it is cell-based, human. The source says: (C) Heatmap of top differentially expressed genes upon JTE-607 treatment. Replication-dependent histones are colored in blue. Expression is plotted as transformed expression value. (D) mRNA expression of H2B and H3 in MiaPaCa2 cells treated with JTE-607. *, P<0.05, **, P<0.01, ***, P<0.001, Ordinary one-way ANOVA with Dunnett's multiple comparisons test. (E) DSeq2 normalized counts of H3F3A and H2AZ1 histone variants (replication-independent) in Panc1 cells treated with JTE-607. […]. (F-H) Volcano plots of Spearman's correlation of CPSF3 and all histone genes (F), replication-dependent histone genes (G) and replication-independent histone genes (H). Each dot represents a histone gene. Blue and red dots denote positive and negative correlation, respectively. (Spearman=−0.15>R>0.15, P<0.05).
As JTE-607 has been previously administered to patients with no cytotoxic effects, we wanted to determine the mechanism underlying the ability of JTE-607 to attenuate PDAC cell proliferation. […] The Spearman's correlation for CPSF3 and 98 histone genes from the CPTAC database (Spearman=−0.15>R>0.15, P<0.05) (FIG. 4F) were calculated. […] A signature by selecting 50 RD histones and assessed PDAC patient survival based on gene expression was generated.
RNA isolation and quantitative PCR. […] Data were analyzed in Microsoft Excel and graphed using GraphPad Prism (v 9.3.0).
A general note: Real-time PCR tracks product formation cycle by cycle.

In test [3] the test system is C-reactive protein, IL-10 and IL-1ra. The settings on record: in humans; cited from earlier work.
Test [4] concerns MiaPaCa2 cells. The experiment in a line: Cell proliferation time course (CellTiter-Glo, days 0, 2, 4, 6). The format is cell-based, human. Conditions: increasing concentrations, days 0-6, dose-dependent. From the text:
(§1) PDAC cells are sensitive to chemical inhibition of CPSF3. CPSF3 was recently identified as the target for the small molecule JTE-607. JTE-607 is a prodrug that, when metabolized by the ester hydrolyzing enzyme carboxylesterase 1 (CES1), binds to CPSF3 and inhibits its catalytic activity, impairing the processing of newly synthesized mRNAs. As genetic depletion of CPSF3 attenuated PDAC cell proliferation (FIG. 1), it 2as hypothesized that pharmacologic inhibition of CPSF3 with JTE-607 could represent a novel therapeutic approach in PDAC. The sensitivity of multiple human pancreatic cell lines, both non-transformed and PDAC, to JTE-607 in a 72-hour dose-response cell viability assay was examined. […] To examine if sensitivity to CPSF3 inhibition was associated with proliferation rate, the relationship between cell line doubling time and JTE-607 sensitivity was assessed. […] Next, the effect of JTE-607 on cell proliferation by treating cells with increasing concentrations of JTE-607 and assessing cell viability in a time-dependent fashion (FIGS. 2C-2E) was determined. […] Finally, the effect of JTE-607 on colony formation in PDAC cell lines was tested. […] Therefore, JTE-607 selectively attenuates proliferation of PDAC cells over non-transformed pancreatic cells.
(§2) JTE-607 studies. For dose-response measurements, cells were seeded at a density of 1000 cells per well in a 96-well white plate. The next day, JTE-607 was titrated over a range of concentrations using the Tecan D300e Digital Dispenser and cell viability was measured 72 hours post drug titration using a CellTiter-Glo Luminescent Cell Viability Assay Kit (Promega). For cell proliferation experiments, cells were seeded at a density of 250 cells per well in a 96-well white plate. DMSO control or JTE-607 was dispensed at varying concentrations and proliferation was measured using CellTiter-Glo Assay at days 0, 2, 4 and 6. For clonogenicity experiments, cells were seeded at a concentration of 500 cells per well and treated with different concentrations of JTE-607. […] Colony area was measured using ImageJ software. […]
A general note: ATP-based viability assays read luminescence as a measure of living cells.

The test system of test [5] is Panc1 cells. The description is as above. In kind it is cell-based, human. The settings on record: increasing concentrations, days 0-6, dose-dependent.
Excerpt: as §1, §2

For the next test, the system named is HPNE cells. The description is as above. The format is cell-based, human. The settings on record: increasing concentrations, days 0-6.
Excerpt: as §1, §2

Structures are written as SMILES.

As for `CCOC(=O)[C@H](Cc1ccccc1)NC(=O)c1cc(Cl)c(OCCN2CCN(C)CC2)c(Cl)c1O` [JTE-607], in the test on PDAC cell lines, the colony formation entry is listed as “significantly decreased colony formation”. The “H3 and H2B protein levels” value in the test on Panc1 cells [1] is “reduced both H3 and H2B protein levels”. Besides, the “RD histone mRNA expression (H2B, H3)” value with MiaPaCa2 cells [2] is on record as “decrease”. Further, the “endotoxin-induced production of C-reactive protein, IL-10 and IL-1ra” value in test [3] is reported as “inhibited”. Moreover, the results for the effect on proliferation result with MiaPaCa2 cells [4], in the test on Panc1 cells [5] and in the test with HPNE cells were “significantly attenuated”, “significantly attenuated” and “no effect on proliferation”, respectively.
